Data set [1] deals with rats with streptozocin-induced diabetes. The settings on record: 40 mg/kg for 30 days; cited from earlier work.
The test system of data set [2] is semi-professional cyclists. To be noted: single dose of 500 mg; cited from earlier work.
The subject of data set [3] is subjects with type II diabetes mellitus. The settings on record: 500 mg daily for 6 weeks; cited from earlier work.
For data set [4] the following is noted: cited from earlier work.
For data set [5] the following is noted: in vivo; cited from earlier work.
The test system of data set [6] is incidence of diabetes. To be noted: pharmacological treatment vs lifestyle changes (58%); cited from earlier work.
The test system of data set [7] is adult individuals with dysglycaemia (baseline blood glucose between 100 and 125 mg/dL). Briefly: Clinical evaluation of the efficacy of the composition: double-blind, placebo-controlled pilot clinical study, 12 weeks. It counts as in vivo, humans. On the procedure:
A single-centre, […], double-blind, placebo-controlled, pilot clinical study was conducted to evaluate the efficacy of the composition object of the present invention on humans in reducing insulin resistance-related risk factors. The study was carried out in accordance with the guidelines of the Helsinki Declaration and approved by the Ethics Committee of the Hospital. 100 adult individuals of both sexes were enrolled (47 women and 53 men, aged 20 to 75 years) with dysglycaemia (baseline blood glucose between 100 and 125 mg/dL on at least two consecutive occasions), in primary prevention for cardiovascular disease.
Exclusion criteria: dysglycaemia secondary to pathological or iatrogenic causes, systemic diseases associated with dysglycaemia, uncompensated dysthyroidism, treatment with drugs potentially interacting with glucose metabolism (for example corticosteroids, atypical antipsychotics).
The subjects enrolled were randomized into 5 groups, each consisting of 20 individuals: • Group A: 1 tablet of active (COMP) twice daily • Group B: 1 placebo tablet twice daily • Group C: 1 tablet of lemon extract 250 mg twice daily • Group D: 1 tablet of blood orange extract 100 mg twice daily • Group E: 1 tablet of chromium 100 mcg twice daily
All the enrolled subjects were subjected, 14 days prior to enrolment (T-14), to a pre-enrolment visit with blood tests to assess meeting the inclusion criteria. The individuals who met the TO inclusion criteria underwent a randomization visit at which the respective treatment was assigned and blood tests were performed in relation to the reference parameters.
The study lasted 12 weeks.
At the end of treatment (T12), the subjects were subjected to an end-of-study visit and blood tests.
The parameters investigated in the study are: Body mass index, systolic and diastolic blood pressure, glycated haemoglobin (HbAlc) fasting plasma glucose (FPG), fasting insulinemia (FPI), HOMA-index, triglycerides, gammaGT, creatinine phosphokinase (CPK).
The treatment called “active” or “COMPOSITION (COMP)” consists of a 570 mg tablet consisting of 250 mg lemon extract, 100 mg blood orange extract, 100 mcg chromium (as chromium picolinate), in addition to excipients such as calcium phosphate, magnesium stearate, silicon dioxide, hydroxypropyl cellulose, mono- and di-glycerides of fatty acids, microcrystalline cellulose, yellow iron oxide as a dye, coating agents. The treatment called “placebo” consists of a tablet equal in shape, weight, colour size and flavour to the active tablet but containing “inert” material for the desired effect and consists of: microcrystalline cellulose, magnesium stearate, silicon dioxide, calcium phosphate, chlorophylline dye, yellow iron oxide dye, coating agents.
The treatments related to groups C, D and E consist of one tablet equal in appearance to the tablets of groups A and B but consisting of the single active ingredient, as described above in addition to excipients.
The treatment tablets were packaged in anonymous white bottles, showing only the batch number consisting of an alphanumeric code and the expiration date. Neither the investigator nor the study subjects knew the contents of the bottles. The bottles of each treatment were placed in cardboard boxes containing a letter in a sealed envelope with reference to the batch number and content, to be opened only in case of need, as in cases of serious adverse events. After randomization, each study participant was given the bottle with 60 tablets for the specific treatment of the group to which they belonged.
All the subjects were instructed to take one tablet in the morning and one in the evening for 12 weeks.

Where [8] appears, read: 12-Week follow-up, 1 tablet twice daily.

In the case of `COc1ccc([C@@H]2CC(=O)c3c(O)cc(O[C@@H]4O[C@H](CO[C@@H]5O[C@@H](C)[C@H](O)[C@@H](O)[C@H]5O)[C@@H](O)[C@H](O)[C@H]4O)cc3O2)cc1O` [hesperidin, 3′,5,7-trihydroxy-4′-methoxy-flavanone-7-rhamnoglucoside], in data set [1], the “fasting glycaemia, insulinemia and glycated haemoglobin” value was “reduced fasting glycaemia, insulinemia and glycated haemoglobin”. In data set [2], the “physical performance and oxidative stress” value is “improved physical performance and modulated oxidative stress”. In addition, the “inflammation and blood pressure” value in data set [3] is “reduced inflammation and blood pressure”. For the same molecule, the water solubility result in data set [4] is listed as “poor water solubility”. In addition, the bioavailability entry in data set [5] is “low bioavailability”.
Regarding `CN(C)C(=N)N=C(N)N` [metformin], the “reduction in the incidence of diabetes” value in data set [6] is on record as 31%.
For chromium picolinate, in data set [7] (setting [8]), the BMI came to 26.2 ± 1.0 kg/m2, the CPK worked out at 133 ± 22 U/L, the DBP was 84 ± 4 mmHg and the FPG was determined as 112 ± 4 mg/dL. For the same molecule, in data set [7] (setting [8]), the FPI is 20.9 ± 1.1 μU/ml, the Gamma-GT is 27 ± 6 U/L, the HbA1c came to 6.4 ± 0.1% and the SBP amounted to 130 ± 7 mmHg. In data set [7] (setting [8]), this molecule yielded a TG of 152 ± 10 mg/dL. This molecule also returned an HOMA-IR in data set [7] (12-Week follow-up, 1 tablet twice daily, HOMA-IR=(FPG*FPI)/405) of 5.7 ± 1.8. In data set [7] (Baseline), this molecule had a BMI of 26.2 ± 1.0 kg/m2, a CPK of 134 ± 25 U/L, a DBP of 85 ± 6 mmHg and an FPG of 117 ± 5 mg/dL. In data set [7] (Baseline), this molecule came in with an FPI of 22.9 ± 1.0 μU/ml, a Gamma-GT of 24 ± 9 U/L, a HbA1c of 6.4 ± 0.3% and an SBP of 131 ± 5 mmHg. The molecule further yielded a TG in data set [7] (Baseline) of 159 ± 12 mg/dL. In data set [7] (Baseline, HOMA-IR=(FPG*FPI)/405), this molecule gave an HOMA-IR of 6.6 ± 1.2. For the same molecule, in data set [7] (Chromium alone 100 mcg, Group E of example 7, 12 weeks), the “Observed efficacy rate (%), Reduction of FPG (−)” value is recorded as −4.2%. Also, the “reductions in HbAlc, FPG, FPI, HOMA-index, triglycerides (statistical significance)” value in data set [7] (after 12 weeks of treatment, with respect to baseline and placebo) was “did not show statistically significant reductions”. In addition, in data set [7] (after 12 weeks vs baseline), the “reduction of fasting insulinemia (FPI)” value stood at 4%, the “reduction of fasting plasma glucose (FPG)” value is reported as 4.2% and the “reduction of glycated haemoglobin (HbAlc)” value is “did not achieve reductions”. The “reduction of HOMA index” value in data set [7] (after 12 weeks vs baseline, HOMA-IR=(FPG*FPI)/405) is 13%.

These data come from patent publication US20250114424A1, “PLANT EXTRACT-BASED COMPOSITION AND ITS USE FOR TREATING GLUCOSE METABOLISM DISORDERS” (ESSERRE PHARMA SRL, priority 2021, published 2025).
